# Data from publication PMC9458217, “Synthesis and Biological Evaluation of Cassane Diterpene (5α)-Vuacapane-8(14), 9(11)-Diene and of Some Related Compounds” (Molecules, 2022).
# “And” between values parts separate entries of the source, which are not always exact repeats. Equal values may be shown once. Read-outs that look alike come from different tables or passages of the source.
# Key:
# [1] = system: RAW 264.7 monocyte/macrophage murine cells; experiment: MTT cytotoxicity on RAW 264.7 cells; format: cell-based; details: Mus musculus
# Protocol: MTT is transformed to formazan in cells with metabolism capacity (viable cells), as the number of viable cells is proportional to formazan concentration; this assay was used to determine the cytotoxicity of the compounds.
# In all experiments, subconfluent monolayer cells were used.
# The effect of compounds on the cell viability was determined by the MTT method (Sigma, St. Louis, MO, USA). The cytotoxicity of the compounds was detected by measuring the absorbance of MTT dye staining of cells with metabolism capacity. […] Finally, after 72 h, 100 μL of MTT solution (0.5 mg/mL) in 50% of PBS and 50% of the medium was added to each well. After 1.5 h of incubation, formazan was re-suspended in 100 μL of DMSO, and each concentration was tested in triplicate.
# (§1) Experimental cytotoxicity data were fitted to a sigmoidal function (y = ymax/ (x/a)^−b) by non-linear regression. […] Similar analyses were performed to obtain the IC50 of NO production (IC50 NO). All shown data are representative of at least two independent experiments performed in triplicate. All quantitative data were summarized as the means ± standard deviation (SD).
# [2] = system: B16-F10 mouse melanoma cells; experiment: MTT cytotoxicity on B16-F10 cells
# Protocol: (§2) These studies were performed using the MTT assay, based on formazan dye formation and expressed as a percentage with respect to untreated control cells (100% of cell metabolism).
# (§3) The effect of compounds on the cell viability was determined by the MTT method [27] (Sigma, St. Louis, MO, USA). The cytotoxicity of the compounds was detected by measuring the absorbance of MTT dye staining of cells with metabolism capacity. […] Finally, after 72 h, 100 μL of MTT solution (0.5 mg/mL) in 50% of PBS and 50% of the medium was added to each well. After 1.5 h of incubation, formazan was re-suspended in 100 μL of DMSO, and each concentration was tested in triplicate.
# (§4) Experimental cytotoxicity data were fitted to a sigmoidal function (y = ymax/ (x/a)^−b) by non-linear regression. […] All shown data are representative of at least two independent experiments performed in triplicate. All quantitative data were summarized as the means ± standard deviation (SD).
# [3] = system: HT29 human colorectal adenocarcinoma cell line; experiment: MTT cytotoxicity on HT29 cells; details: HT-29, 72 h
# Protocol: as §2, §3, §4
# [4] = system: HepG2 human hepatocarcinome cell-line; experiment: MTT cytotoxicity on HepG2 cells; details: HepG2, 72 h
# Protocol: as §2, §3, §4
# [5] = system: LPS-induced J774.A1 macrophage cells; set-up: method as in PMID 34990974; details: 50 μM, natural compounds; cited from earlier work
# [6] = system: LPS-stimulated RAW 264.7 murine macrophage cells; experiment: Inhibition of NO production (nitrite, Griess reaction) in LPS-stimulated RAW 264.7 cells; format: cell-based; details: for IC50: Mus musculus, RAW264.7, 72 h; for IC50 / IC50 NO: LPS-activated RAW 264.7, 72 h of incubation; for NO inhibition: 72 h
# Protocol: The activation of the inflammatory process induces nitric oxide, NO, released as a second messenger. NO production can be used as the main indicator to assess inflammatory activity, which can be measured using nitrite (NO^2–) quantification (proportional to the released NO), determined through the Griess reaction. […] Inhibition percentages were calculated with respect to the increase between positive control (only LPS treated control cells) and negative control (untreated control cells).
# The absorbance was referred to nitrite standard curve to determine the concentration of nitrite in the supernatant of each experimental sample. The percentage of NO production was determined, assigning 100% at the increase between negative control (untreated cells) and positive control (cells only treated with 10 μg/mL of LPS).
# as §1
# [7] = system: RAW 264.7 cells, activated by LPS; experiment: Cell cycle distribution of LPS-activated RAW 264.7 cells, flow cytometry with PI; format: cell-based, murine
# Protocol: The cell-cycle distribution was analyzed by flow cytometry with propidium iodide (IP) staining (Figure 3). Significant growth arrest of the cell cycle in LPS-induced RAW 264.7 cells produced 100% detention in the G0/G1 phase (positive control) compared to the negative control (49.6%). After incubation with compound 20, the percentage of cells found in the G0/G1 phase was 29%, 32%, and 36%, respectively, at the assayed concentrations. Similar results were found for compound 16 (35%, 38%, and 39%) after 72 h of incubation at the same concentrations. This decrease was accompanied by the consequent increase in the number of cells in the S phase: 70%, 68%, and 56%, respectively, for compound 20, and 63%, 61%, and 59% for compound 16. […] This recovery of the cell cycle with respect to control cells (only LPS treated) could be a consequence of the anti-inflammatory effect produced by the tested compounds, which increase cell division, rescuing RAW 264.7 cells from LPS-induced arrest during their monocyte/macrophage differentiation process.
# DNA content is directly proportional to the PI fluorescence; it allows us to determine the percentage of cells in each cell cycle phase. Using a fluorescence-activated cell sorter (FACS) at 488 nm in an Epics XL flow cytometer (Coulter Corporation, Hialeah, FL, USA), cell subpopulations could be visualized with different DNA contents. […] By treating cells only with LPS, the positive control was performed. However, the negative control was prepared, exposing cells […]. After treatment, cells were washed twice with PBS and trypsine solution, then resuspended in TBS 1X (10 Mm Tris, 150 Mm NaCl) and then Vindelov buffer (100 mM Tris, 100 Mm NaCl, 10 mg/mL Rnasa, 1 mg/mL PI, pH 8) was added. The samples were placed for 15 min on ice. Immediately before FACS analysis, cells were stained with 20 μL of 1 mg/mL PI solution. Data were analyzed to determine the percentage of cells in each cell cycle phase (G0/G1, S, and G2/M).
# [8] = RAW264.7, RAW 264.7, MTT, 72 h of incubation, 20% cell viability inhibition, read-out: IC20
# [9] = RAW264.7, RAW 264.7, MTT, 72 h of incubation, 80% cell viability inhibition, read-out: IC80
# [10] = RAW264.7, RAW 264.7, MTT, 72 h of incubation, read-out: IC50
Structure (SMILES),"IC50 ([2]; Mus musculus, B16-F10, 72 h) [µg/mL]",IC50 [4] [µg/mL],IC50 [6] [µg/mL],"IC20 [1, 8] [µg/mL]","IC80 [1, 9] [µg/mL]","IC50 [1, 10] [µg/mL]",IC50 ([2]; 72 h),"IC50 ([3]; HT29, MTT, 72 h) [µg/mL]",NO inhibition ([6]; at ¾ IC50 concentration),further results
"Cc1c2c(cc3c1CC[C@H]1C(C)(C)CCC[C@]31C)OC(=O)C2 [Compound 5, pterolobirin H]",,,,,,,,,,"IC20 ([1]; RAW264.7, 72 h): 34.9 ± 2.11 µg/mL; IC80 ([1]; RAW264.7, 72 h): 64.2 ± 3.29 µg/mL"
"Cc1c2c(cc3occc13)[C@@]1(C)CCCC(C)(C)[C@@H]1CC2 [Compound 7, (5a)-vouacapane-8(14),9(11)-diene]",31.7 ± 1.1,14 ± 0.5,,,,,,,,"IC20 ([1]; RAW264.7, 72 h): 50.9 ± 1.61 µg/mL; IC50 ([1]; RAW264.7, 72 h): 57.5 ± 1.06 µg/mL; IC80 ([1]; RAW264.7, 72 h): 65.5 ± 0.95 µg/mL; IC50 [3]: 20.7 ± 1.09 µg/mL; inhibition of NO production [5]: did not show any significant inhibition of NO production"
COC(=O)c1ccc2c(c1C(=O)OC)CC[C@H]1C(C)(C)CCC[C@]21C [Compound 14],< 10,33.8 ± 0.8,10.7 ± 1.14,22.92 ± 0.13,26.89 ± 0.02,24.67 ± 0.04,9.25 ± 0.74 µg/mL,15.4 ± 2.72,,
COC(=O)C1=C(C(=O)OC)C2(C)CC[C@H]3C(C)(C)CCC[C@]3(C)C2=CC1 (some centres unmarked) [Compound 15],13 ± 1.8,58.32 ± 0.32,7.98 ± 0.1,43.7 ± 2.37,83.67 ± 0.64,64.6 ± 1.39,,25.3 ± 0.89,,
COC(=O)C1=C(C(=O)OC)C2(C)CC[C@H]3C(C)(C)CCC[C@]3(C)C2=CC1=O (some centres unmarked) [Compound 16],< 10,26.7 ± 0.88,2.98 ± 0.04,14.5 ± 0.68,,26.7 ± 0.88,6.01 ± 0.41 µg/mL,11.9 ± 0.8,100%,"IC50 NO [6]: 5.71 ± 0.14 µg/mL; NO inhibition ([6]; at ¼ IC50 concentration): 100%; NO inhibition ([6]; at ½ IC50 concentration): 100%; cells in the S phase ([7]; ¼ IC50, 72 h): 63%; percentage of cells in the G0/G1 phase ([7]; ¼ IC50, 72 h, LPS control 100%, negative control 49.6%): 35%; changes in the G2/M phase ([7]; ¼, ½ and ¾ IC50, 72 h): not significant; cells in the S phase ([7]; ½ IC50, 72 h): 61%; percentage of cells in the G0/G1 phase ([7]; ½ IC50, 72 h): 38%; cells in the S phase ([7]; ¾ IC50, 72 h): 59%; percentage of cells in the G0/G1 phase ([7]; ¾ IC50, 72 h): 39%"
COC(=O)c1c(O)cc2c(c1C(=O)OC)CC[C@H]1C(C)(C)CCC[C@]21C [Compound 17],< 10,8.15 ± 0.1,4.74 ± 1.27,4.95 ± 0.13,11.8 ± 2.97,7.49 ± 0.86,5.96 ± 0.55 µg/mL and 5.97 ± 0.55 µg/mL,5.96 ± 0.55,30.52%,
COC(=O)c1c(O)cc2c(c1C)CC[C@H]1C(C)(C)CCC[C@]21C [Compound 18],< 10,13.57 ± 0.12,31.4 ± 4.9,7.32 ± 2.53,20.4 ± 0.26,13.1 ± 1.51,5.96 ± 0.35 µg/mL,30.7 ± 0.49,11.06%,
Cc1c(CO)c(O)cc2c1CC[C@H]1C(C)(C)CCC[C@]21C [Compound 19],48.8 ± 2.79,12.2 ± 1.78,27.57 ± 0.2,70.83 ± 0.28,78.94 ± 0.28,74.65 ± 0.17,,49 ± 0.72,,
CC1(C)CCC[C@]2(C)c3cc(O)c(C=O)cc3CC[C@@H]12 [Compound 23],4.33 ± 0.27,8.36 ± 1.77,3.22 ± 0.05,5.13 ± 0.18,6.8 ± 0.24,5.87 ± 0.18,,5.19 ± 0.17,78.48%,IC50 NO [6]: 3.32 ± 0.05 µg/mL
CC1(C)CCC[C@]2(C)c3cc(O)c(CO)cc3CC[C@@H]12 [Compound 24],10.51 ± 0.01,24.2 ± 2.71,15.2 ± 2.13,9.09 ± 0.03,20.8 ± 0.48,13.94 ± 0.07,,17.4 ± 1.97,did not cause any inhibition of NO release,
CC1(C)CCC[C@]2(C)c3cc4c(cc3CC[C@@H]12)CC(=O)O4 [Compound 25],74.3 ± 2.19,77.97 ± 0.72,22.58 ± 0.05,42.6 ± 0.74,66.33 ± 0.35,53.92 ± 0.36,,74.3 ± 2.19,72.24%,
